The test system of series [1] is wheat glume blotch (Leptosphaeria nodorum). The series can be described thus: Efficacy test on wheat glume blotch, spray treatment and prevention test (Test Example 8). It is filed as in vivo. The settings on record: spray, lesion area ratio; for pest or weed control at 3 ppm / pest or weed control at 10 ppm: Parastagonospora nodorum, read-out: Preventive value. The method in brief: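 Wheat seedlings (Haruyutaka, 1-leaf stage) sprayed with diluted two-component formulation; one day later spray-inoculated with L. nodorum spores (1×100,000 cfu/ml), 48 h at 20° C, >95% RH, then 7 days greenhouse. Lesion area ratio gives preventive value versus untreated; synergy assessed by Colby method.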

The test system of series [2] is cucumber downy mildew (Pseudoperenospora cubensis). The series can be described thus: Efficacy test on cucumber downy mildew, spray treatment and prevention test (Test Example 7). The settings on record: single compound 250 ppm; lesion area ratio. Type of series: in vivo. Here is the method:
An agent comprising the following compound listed in Table 2 (active ingredient A) and the compound listed in Table 6 (C40: active ingredient B) as active ingredients, was prepared in accordance with the above Formulation Example. This agent was diluted with water to a predetermined concentration to obtain a test solution. Then, to seedlings of cucumber (variety: Sagami-hanjiro) at 1.5-leaf stage grown in a pot with a diameter of 7 cm, the test solution was applied by a spray gun in an amount of 10 ml per pot, for treatment. One day after the treatment, a spore suspension (2×100,000 cfu/ml) of cucumber downy mildew (Pseudoperenospora cubensis), was spray-inoculated, and the pot was placed in a moist chamber set in temperature of 20° C. and humidity more than 95% RH for 24 hours. After placing the pot in a glass greenhouse for 6 days, the ratio of the formed lesion area occupying the inoculated leaves was measured, and the preventive value was calculated in accordance with the following formula. Preventive value=[1−(treated plot lesion area ratio/untreated plot lesion area ratio)]×100
Further, from the preventive value for each agent concentration, synergy was calculated by using the Colby method (Colby S. R. 1976, Weeds 15, 20-22).

In series [3] the test system is wheat powdery mildew (Blumeria graminis). The series can be described thus: Efficacy test on wheat powdery mildew, seed treatment (Test Example 10). As to conditions: wheat (Norin 61). It is filed as in vivo. Here is the method: An agent comprising the following compound listed in Table 2 (active ingredient A) and the compound listed in Table 11 (H35: active ingredient B) as active ingredients, was prepared in accordance with the above Formulation Example. This agent was diluted with water to a predetermined concentration to obtain a test solution. A predetermined amount of test solution was put in a glass bottle of 5 ml, and 0.5 g (approximately 15 grains) of wheat seeds (variety: Norin 61) were added, stirred and air-dried. In each pot with a diameter of 7 cm and having soil put therein, 3 grains were seeded and grown for 14 days. To the wheat seedlings grown to the 1-leaf stage, a spore suspension (100,000 cfu/ml) of wheat powdery mildew (Blumeria graminis) was spray-inoculated. After placing the pot in a glass greenhouse for 10 days, the ratio of the formed lesion area occupying the inoculated leaves was measured, and the preventive value was calculated in accordance with the following formula. Preventive value=[1−(treated plot lesion area ratio/untreated plot lesion area ratio)]×100
Further, from the preventive value at each agent concentration, synergy was calculated by using the Colby method (Colby S. R. 1976, Weeds 15, 20-22).

Where [4] appears, read: processing amount 5 mg/1 g seed.
[5] abbreviates: processing amount 10 mg/1 g seed.

With `CC(C)O/N=C(/CNC(=O)c1ccccc1C(F)(F)F)c1ncc(Cl)cc1Cl` [Compound No. 4], the Preventive value in series [1] (single compound 3 ppm) was 40; in series [1] (single compound 10 ppm) it was 65; in series [2], 0; in series [3] (setting [4]) it was 97; in series [3] (setting [5]), 99.

`COc1c(Cl)cnc(C(CNC(=O)c2ccccc2C(F)(F)F)=NOC(C)C)c1Cl` [Compound No. 9]: the Preventive value in series [1] (single compound 3 ppm) worked out at 60; in series [1] (single compound 10 ppm) it was 75; in series [2], 0; in series [3] (setting [4]), 100; in series [3] (setting [5]), 100.

As usually defined, the melting point is the temperature, or range, at which the solid turns liquid. Compound `CC#Cc1cnc(/C(CNC(=O)c2cn(C)nc2C(F)F)=N\OC(C)C)c(Cl)c1` [Compound No. 20, (Z)—N-[2-[3-chloro-5-(1-propynyl)pyridin-2-yl]-2-(isopropoxyimino)ethyl]-3-difluoromethyl-1-methyl-1H-pyrazole-4-carboxamide] displayed a melting point of 102 to 103 °C. In series [1] (single compound 3 ppm), the pest or weed control at 3 ppm amounted to 80%. Also, the pest or weed control at 10 ppm in series [1] (single compound 10 ppm) came to 85%. Further, the Preventive value in series [2] is reported as 5. Also, the Preventive value in series [3] (setting [4]) stood at 100. For the same compound, the Preventive value in series [3] (setting [5]) is listed as 100.

Regarding `CC(C)O/N=C(/CNC(=O)c1cn(C)nc1C(F)F)c1ncc(C#CC2CC2)cc1Cl` [Compound No. 25, (Z)—N-[2-[3-chloro-5-(cyclopropylethynyl)pyridin-2-yl]-2-(isopropoxyimino)ethyl]-3-difluoromethyl-1-methyl-1H-pyrazole-4-carboxamide], the melting point was in the range of 105 to 107 °C. For the same compound, the pest or weed control at 3 ppm in series [1] (single compound 3 ppm) worked out at 75%. The pest or weed control at 10 ppm in series [1] (single compound 10 ppm) was determined as 85%. Also, the Preventive value in series [2] amounted to 5. The Preventive value in series [3] (setting [4]) is 100. Further, the Preventive value in series [3] (setting [5]) was determined as 100.

Take `CC(C)ON=C(CNC(=O)c1ccccc1C(F)(F)F)c1ncc(C(F)(F)F)cc1Cl` [compound 14]: the Preventive value in series [1] (single compound 3 ppm) is reported as 75; in series [1] (single compound 10 ppm) it was 80; in series [2] it was 0; in series [3] (setting [4]), 97; in series [3] (setting [5]) it was 100.

As to `CON=C(CNC(=O)c1cn(C)nc1C(F)F)c1ncc(C#CC(C)(C)C)cc1Cl` [compound 28], the Preventive value is listed as 60 in series [1] (single compound 3 ppm); 85 in series [1] (single compound 10 ppm); 5 in series [2]; 100 in series [3] (setting [4]); 100 in series [3] (setting [5]).

These data come from patent US9974305B2, “Fungicidal or bactericidal composition, and method for controlling diseases” (NISSAN CHEMICAL INDUSTRIES, LTD., priority 2014, dated 2018).
